Assay results: patent publication US9890171B2, “Aldosterone synthase inhibitors” (Boehringer Ingelheim International GmbH, priority 2014, dated 2018)

Molecular target: aldosterone synthase (CYP11B2) (Macaca fascicularis, UniProt A0A2K5UPL9)
Assay: aldosterone synthase inhibition assay
Format: biochemical, cynomolgus monkey
Details: cynomolgus adrenal gland mitochondria, 2 μM corticosterone, aldosterone quantified by mass spectrometry
Procedure: The aldosterone synthase inhibition assay employs cynomolgus adrenal gland mitochondria as the source of aldosterone synthase (CYP11B2). Mitochondria are prepared from frozen cynomolgus monkey adrenal glands according to Method A described in by J. D. McGarry et al. (Biochem. J., 1983, 214, 21-28), with a final resuspension in the AT buffer described in R. Yamaguchi et al. (Cell Death and Differentiation, 2007, 14, 616-624), frozen as aliquots in liquid nitrogen and stored at −80° C. until use.
Assays are performed in 96-well format in a final volume of 60 μL/well, containing 100 mM potassium phosphate, pH 7.4, 1% (v/v) DMSO, and additionally, 2 μM of corticosterone and […] of mitochondrial protein. Reactions are started by the addition of NADPH to 1 mM and allowed to proceed for 60-90 minutes at 37° C. Reactions are terminated by the addition of […]. One hundred microliters are then transferred to a glass filter plate and centrifuged at 570×g for 5 minutes and the filtrate is collected. Reaction product aldosterone is quantified by mass spectrometry. To determine the assay blank value (0% activity), NADPH is omitted from some reactions.
Dose dependent inhibition is quantified by the inclusion of compound at various concentrations. Maximum activity (100%) is defined by reactions containing NADPH, but without compound. Activities at each concentration are expressed as a percentage of the maximum activity (y-axis) and plotted against concentration of compound (x-axis) and the concentration corresponding to 50% activity (IC50) determined using the XLFit curve-fitting program using a 4-parameter logistic model.

Sequence of aldosterone synthase (CYP11B2) (A0A2K5UPL9 1-503): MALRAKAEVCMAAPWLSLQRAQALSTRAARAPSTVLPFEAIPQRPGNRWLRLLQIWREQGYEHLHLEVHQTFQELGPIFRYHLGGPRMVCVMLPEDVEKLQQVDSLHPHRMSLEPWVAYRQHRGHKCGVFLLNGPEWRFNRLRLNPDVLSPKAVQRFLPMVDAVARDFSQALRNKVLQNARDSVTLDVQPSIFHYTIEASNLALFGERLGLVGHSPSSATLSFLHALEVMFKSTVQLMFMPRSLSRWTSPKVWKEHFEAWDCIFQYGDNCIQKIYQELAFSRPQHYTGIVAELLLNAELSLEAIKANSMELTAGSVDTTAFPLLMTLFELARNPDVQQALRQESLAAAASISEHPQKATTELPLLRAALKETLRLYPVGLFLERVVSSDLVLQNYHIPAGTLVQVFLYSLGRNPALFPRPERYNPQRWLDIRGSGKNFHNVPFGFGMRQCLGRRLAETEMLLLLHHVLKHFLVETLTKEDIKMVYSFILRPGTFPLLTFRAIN

SMILES	IC50
CCC(=O)NC1COCc2c(-c3ccc4c(cnn4C)c3)cncc21 (single isomer, unassigned) [Compound 72, N-[8-(1-Methyl-1H-indazol-5-yl)-3,4-dihydro-1H-pyrano[4,3-c]pyridin-4-yl]-propionamide]	2300 nM
CCC(=O)NC1COCc2c(-c3ccc4c(cnn4C)c3)cncc21 (single isomer, unassigned) [Compound 73, N-[8-(1-Methyl-1H-indazol-5-yl)-3,4-dihydro-1H-pyrano[4,3-c]pyridin-4-yl]-propionamide]	34.6 nM
CC(=O)NC1COCc2c(-c3ccc4cnn(C)c4c3)cncc21 (single isomer, unassigned) [Compound 74, N-[8-(1-Methyl-1H-indazol-6-yl)-3,4-dihydro-1H-pyrano[4,3-c]pyridin-4-yl]-acetamide]	25.6 nM
Cn1ncc2ccc(-c3cncc4c3COCC4NC(=O)C3CC3)cc21 (single isomer, unassigned) [Compound 75, Cyclopropanecarboxylic acid [8-(1-methyl-1H-indazol-6-yl)-3,4-dihydro-1H-pyrano[4,3-c]pyridin-4-yl]-amide]	26.4 nM
CCC(=O)NC1COCc2c(-c3ccc4cnn(C)c4c3)cncc21 (single isomer, unassigned) [Compound 76, N-[8-(1-Methyl-1H-indazol-6-yl)-3,4-dihydro-1H-pyrano[4,3-c]pyridin-4-yl]-propionamide]	17.9 nM
CC(C)C(=O)NC1COCc2c(-c3ccc4cnn(C)c4c3)cncc21 (single isomer, unassigned) [Compound 77, N-[8-(1-Methyl-1H-indazol-6-yl)-3,4-dihydro-1H-pyrano[4,3-c]pyridin-4-yl]-isobutyramide]	32.6 nM
CCS(=O)(=O)NC1COCc2c(-c3cc4c(cnn4C)cc3C)cncc21 (single isomer, unassigned) [Compound 78, Ethanesulfonic acid [8-(1,5-dimethyl-1H-indazol-6-yl)-3,4-dihydro-1H-pyrano[4,3-c]pyridin-4-yl]-amide]	2800 nM
CCS(=O)(=O)NC1COCc2c(-c3cc4c(cnn4C)cc3C)cncc21 (single isomer, unassigned) [Compound 79, Ethanesulfonic acid [8-(1,5-dimethyl-1H-indazol-6-yl)-3,4-dihydro-1H-pyrano[4,3-c]pyridin-4-yl]-amide]	653 nM
Cn1ncc2ccc(-c3cncc4c3COCC4NS(C)(=O)=O)cc21 (single isomer, unassigned) [Compound 80, N-[8-(1-Methyl-1H-indazol-6-yl)-3,4-dihydro-1H-pyrano[4,3-c]pyridin-4-yl]-methanesulfonamide]	2100 nM
Cn1ncc2ccc(-c3cncc4c3COCC4NS(C)(=O)=O)cc21 (single isomer, unassigned) [Compound 81, N-[8-(1-Methyl-1H-indazol-6-yl)-3,4-dihydro-1H-pyrano[4,3-c]pyridin-4-yl]-methanesulfonamide]	28.5 nM
CCS(=O)(=O)NC1COCc2c(-c3ccc4c(cnn4C)c3)cncc21 (single isomer, unassigned) [Compound 82, Ethanesulfonic acid [8-(1-methyl-1H-indazol-5-yl)-3,4-dihydro-1H-pyrano[4,3-c]pyridin-4-yl]-amide]	215 nM
CCS(=O)(=O)NC1COCc2c(-c3ccc4cnn(C)c4c3)cncc21 (single isomer, unassigned) [Compound 83, Ethanesulfonic acid [8-(1-methyl-1H-indazol-6-yl)-3,4-dihydro-1H-pyrano[4,3-c]pyridin-4-yl]-amide]	31.3 nM
O=C1NCCc2cc(-c3cncc4c3COC3(CC3)C4O)ccc21 (single isomer, unassigned) [Compound 84, 6-[4-hydroxyspiro[1,4-dihydropyrano[4,3-c]pyridine-3,1′-cyclopropane]-8-yl]-3,4-dihydro-2H-isoquinolin-1-one]	255 nM
O=C1NCCc2cc(-c3cncc4c3COC3(CC3)C4O)ccc21 (single isomer, unassigned) [Compound 85, 6-[4-hydroxyspiro[1,4-dihydropyrano[4,3-c]pyridine-3,1′-cyclopropane]-8-yl]-3,4-dihydro-2H-isoquinolin-1-one]	90.9 nM
Cc1ncc2ccc(-c3cncc4c3COCC4O)cn12 (single isomer, unassigned) [Compound 86, 8-(3-Methyl-imidazo[1,5-a]pyridin-6-yl)-3,4-dihydro-1H-pyrano[4,3-c]pyridin-4-ol]	494 nM
Cc1ncc2ccc(-c3cncc4c3COCC4O)cn12 (single isomer, unassigned) [Compound 87, 8-(3-Methyl-imidazo[1,5-a]pyridin-6-yl)-3,4-dihydro-1H-pyrano[4,3-c]pyridin-4-ol]	123 nM

SMILES	IC50
Cc1ncc2ccc(-c3cncc4c3COC3(CC3)C4O)cn12 (single isomer, unassigned) [Compound 88, 8-(3-methylimidazo[1,5-a]pyridin-6-yl)spiro[1,4-dihydropyrano[4,3-c]pyridine-3,1′-cyclopropane]-4-ol]	128 nM
Cc1ncc2ccc(-c3cncc4c3COC3(CC3)C4O)cn12 (single isomer, unassigned) [Compound 89, 8-(3-methylimidazo[1,5-a]pyridin-6-yl)spiro[1,4-dihydropyrano[4,3-c]pyridine-3,1′-cyclopropane]-4-ol]	73 nM
Cc1noc2ccc(-c3cncc4c3COCC4O)cc12 (single isomer, unassigned) [Compound 90, 8-(3-Methyl-benzo[d]isoxazol-5-yl)-3,4-dihydro-1H-pyrano[4,3-c]pyridin-4-ol]	8.5 nM
Cc1nnc2ccc(-c3cncc4c3COC3(CC3)C4O)cn12 (single isomer, unassigned) [Compound 91, 8-(3-methyl-[1,2,4]triazolo[4,3-a]pyridin-6-yl)spiro[1,4-dihydropyrano[4,3-c]pyridine-3,1′-cyclopropane]-4-ol]	220 nM
Cn1ncc2c(F)cc(-c3cncc4c3COC3(CC3)C4O)cc21 (single isomer, unassigned) [Compound 92, 8-(4-fluoro-1-methyl-indazol-6-yl)spiro[1,4-dihydropyrano[4,3-c]pyridine-3,1′-cyclopropane]-4-ol]	11.5 nM
Cc1nnc2ccc(-c3cncc4c3COC3(CC3)C4O)cn12 (single isomer, unassigned) [Compound 93, 8-(3-methyl-[1,2,4]triazolo[4,3-a]pyridin-6-yl)spiro[1,4-dihydropyrano[4,3-c]pyridine-3,1′-cyclopropane]-4-ol]	271 nM
Cc1noc2ccc(-c3cncc4c3COCC4O)cc12 (single isomer, unassigned) [Compound 94, 8-(3-Methyl-benzo[d]isoxazol-5-yl)-3,4-dihydro-1H-pyrano[4,3-c]pyridin-4-ol]	10.1 nM
Cc1nnc2ccc(-c3cncc4c3COCC4O)cn12 (single isomer, unassigned) [Compound 95, 8-(3-Methyl-[1,2,4]triazolo[4,3-a]pyridin-6-yl)-3,4-dihydro-1H-pyrano[4,3-c]pyridin-4-ol]	766 nM
Cn1ncc2c(F)cc(-c3cncc4c3COCC4O)cc21 (single isomer, unassigned) [Compound 96, 8-(4-Fluoro-1-methyl-1H-indazol-6-yl)-3,4-dihydro-1H-pyrano[4,3-c]pyridin-4-ol]	8.1 nM
Cc1nnc2ccc(-c3cncc4c3COCC4O)cn12 (single isomer, unassigned) [Compound 97, 8-(3-Methyl-[1,2,4]triazolo[4,3-a]pyridin-6-yl)-3,4-dihydro-1H-pyrano[4,3-c]pyridin-4-ol]	205 nM
OC1COCc2c(-c3ccc4nncn4c3)cncc21 (single isomer, unassigned) [Compound 98, 8-[1,2,4]Triazolo[4,3-a]pyridin-6-yl-3,4-dihydro-1H-pyrano[4,3-c]pyridin-4-ol]	1300 nM
OC1COCc2c(-c3ccn4ccnc4c3)cncc21 (single isomer, unassigned) [Compound 99, 8-Imidazo[1,2-a]pyridin-7-yl-3,4-dihydro-1H-pyrano[4,3-c]pyridin-4-ol]	5000 nM
OC1COCc2c(-c3ccc4nncn4c3)cncc21 (single isomer, unassigned) [Compound 100, 8-[1,2,4]Triazolo[4,3-a]pyridin-6-yl-3,4-dihydro-1H-pyrano[4,3-c]pyridin-4-ol]	2300 nM
OC1COCc2c(-c3ccn4ccnc4c3)cncc21 (single isomer, unassigned) [Compound 101, 8-Imidazo[1,2-a]pyridin-7-yl-3,4-dihydro-1H-pyrano[4,3-c]pyridin-4-ol]	225 nM
O=C1CCc2cc(-c3cncc4c3COCC4O)ccc21 (single isomer, unassigned) [Compound 103, 5-(4-Hydroxy-3,4-dihydro-1H-pyrano[4,3-c]pyridin-8-yl)-indan-1-one]	10 nM
NC(=O)c1cccc2cc(-c3cncc4c3COCC4O)cnc12 (single isomer, unassigned) [Compound 104, 3-(4-Hydroxy-3,4-dihydro-1H-pyrano[4,3-c]pyridin-8-yl)-quinoline-8-carboxylic acid amide]	81 nM
